Results taken from patent publication US20260049089A1, “KRAS INHIBITOR COMPOUND” (SHANGHAI APEIRON THERAPEUTICS COMPANY LIMITED, priority 2022, published 2026).
Like-named read-outs stand apart in the source and are kept apart here.

Columns and labels:
[1] = the molecule shown is the open-chain precursor; cc_pd bond; 15-membered ring; PdCl2(PPh3)2/CuI/I2; toluene/iPr2NH 1:1; 1.1 mM; 80.0 °C
AGS cells = experiment: 3D cell proliferation assay (CellTiter-Glo 3D), AGS; type: cell-based; details: 5 days, read-out: 3D Proliferation Inhibition AGS_IC50
Protocol: (§1) Using a nanoliter liquid handling system (LABCYTE, P-0200), the diluted test compounds were added to a 384-well low-adsorption cell culture plate. Cells were seeded into the wells, and the plate was placed in an incubator at 37° C. with 5% CO2. After co-incubating the compounds and cells for 5 days, CellTiter-Glo® 3D reagent was added. Luminescence values were measured using an EnVision Multilabel Plate Reader (luminescence is proportional to the ATP content in the system, and ATP content directly reflects the number of viable cells). Finally, the IC50 values (half-maximal inhibitory concentrations) of the compounds were determined using non-linear fitting equations in XLFit software with the following parameters: […]
(§2) X: Logarithm of compound concentration • Y: Inhibition rate (%)
(§3) [formula] • Negative control: DMSO • Positive control: Medium only

AsPC-1 cells = experiment: 3D cell proliferation assay (CellTiter-Glo 3D), AsPC-1; type: cell-based; details: 5 days, read-out: 3D Proliferation Inhibition AsPC-1_IC50
Protocol: as §1, §2, §3

pERK in AsPC-1 cells = experiment: ERK phosphorylation cell assay, AsPC-1; type: cell-based; details: read-out: pERK AsPC-1_IC50
pERK in AGS cells = experiment: ERK phosphorylation cell assay, AGS; type: cell-based; details: 3 hours compound incubation, read-out: pERK AGS_IC50
How it was run: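 AGS […] cells, seeded overnight, were treated with compound for 3 hours at 37° C. pERK was detected by in-cell immunofluorescence, with GAPDH as normalizer, using 800CW/680RD secondary antibodies. Mean relative p-ERK levels were fitted against log concentration, with DMSO as negative and 10 μM Reference as positive control.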

[2] = Homo sapiens, ASPC1, AsPC-1 cells

Row | Structure (SMILES) | ring closure, isolated yield [1] | IC50 (AGS cells) | IC50 (AsPC-1 cells) | IC50 (pERK in AsPC-1 cells; AsPC-1 cells) | IC50 (pERK in AGS cells) | IC50 (AGS cells; Homo sapiens, AGS, 120 h) | IC50 (AsPC-1 cells; Homo sapiens, ASPC1, 120 h) | IC50 (pERK in AsPC-1 cells; [2]) | IC50 (pERK in AGS cells; Homo sapiens, AGS, 3 h)
1 | C#CCCCCC(=O)Nc1cc2c(N3C[C@H]4CC[C@@H](C3)N4C(=O)OC(C)(C)C)nc(OCC(F)(F)F)nc2c(F)c1-c1cc(OCOC)cc2ccc(F)c(C#C)c12 | 53% |  |  |  |  |  |  |  | 
2 | CN1CCC[C@H]1COc1nc(N2CCC[C@@](C)(O)C2)c2cc3c(c(F)c2n1)-c1cc(O)cc2ccc(F)c(c12)CCCCCN3 (single isomer, unassigned) [Example 28A] |  | 430 nM | 1760 nM | 776 nM | 194 nM |  |  |  | 
3 | C=C1CN2CCCC2(COc2nc(N3CCC[C@@](C)(O)C3)c3cc4c(c(F)c3n2)-c2cc(O)cc3ccc(F)c(c23)CCCCCN4C)C1 (single isomer, unassigned) [Example 22B] |  | 553 nM | 1790 nM | 898 nM | 430 nM |  |  |  | 
4 | C[C@@]1(O)CCCN(c2nc(OC[C@@]34CCCN3C[C@H](F)C4)nc3c(F)c4c(cc23)NCCOCCc2c(F)ccc3cc(O)cc-4c23)C1 [Example 43B] |  |  |  |  |  | 148 nM | 434 nM | 108 nM | 61 nM
5 | C[C@@]1(O)CCCN(c2nc(OC[C@@]34CCCN3C[C@H](F)C4)nc3c(F)c4c(cc23)NCCOCCc2c(F)ccc3cccc-4c23)C1 (single isomer, unassigned) [Example 52B] |  |  |  | > 10000 nM | > 10000 nM | > 10000 nM | > 10000 nM |  | 
6 | CN1CCCCc2c(F)ccc3cc(O)cc(c23)-c2c1cc1c(N3CC4CCC(C3)N4)nc(OC[C@@]34CCCN3C[C@H](F)C4)nc1c2F [Example 3, 10-((1R,5S)-3,8-Diazabicyclo[3.2.1]octan-3-yl)-3,14-difluoro-12-(((2R,7aS)-2-fluorotetrahydro-1H-pyrazin-7a(5H)-yl)methoxy)-8-methyl-5,6,7,8-tetrahydro-4H-naphtho[1′,8′:4,5,6]acridin[2,3-g]quinazolin-16-ol] |  |  |  |  |  | 329 nM | 393 nM | 104 nM | 47 nM
7 | Oc1cc2c3c(c(F)ccc3c1)CCCCCCNc1cc3c(N4CC5CCC(C4)N5)nc(OC[C@@]45CCCN4C[C@H](F)C5)nc3c(F)c1-2 [Example 8] |  |  |  |  |  | 255 nM | 682 nM | 278 nM | 73 nM
8 | C=C1CN2CCC[C@@]2(COc2nc(N3CCC[C@@](C)(O)C3)c3cc4c(c(F)c3n2)-c2cc(O)cc3ccc(F)c(c23)CCOCCN4)C1 (single isomer, unassigned) [Example 42A] |  | 125 nM | 456 nM | 134 nM | 26 nM |  |  |  | 
9 | C=C1CN2CCCC2(COc2nc(N3CCC[C@@](C)(O)C3)c3cc4c(c(F)c3n2)-c2cc(N)cc3ccc(F)c(c23)CCCCCN4)C1 (stereo partly drawn) [Example 40, (3R)-1-(17-amino-3,15-difluoro-13-((2-methylenetetrahydro-1H-pyrazin-7a(5H)-yl)methoxy)-4,5,6,7,8,9-hexahydronaphtho[1′,8′:4,5,6][1]azacycloundecano[2,3-g]quinazolin-11-yl)-3-methylpiperidin-3-ol] |  |  |  |  |  | 2050 nM | 2170 nM | > 10000 nM | 9110 nM
10 | CN1CCOCCc2c(F)ccc3cc(O)cc(c23)-c2c1cc1c(N3CCC[C@@](C)(O)C3)nc(OC[C@@]34CCCN3C[C@H](F)C4)nc1c2F [Example 47, 3,15-difluoro-13-(((2R,7aS)-2-fluorotetrahydro-1H-pyrazin-7a(5H)-yl)methoxy)-11-((R)-3-hydroxy-3-methylpiperidin-1-yl)-9-methyl-4,5,8,9-tetrahydro-7H-naphtho[1′,8′:7,8,9][1]oxa[4]azacycloundeca[5,6-g]quinazoline-17-ol] |  | 8.8 nM | 28 nM | 7.9 nM | 2.7 nM |  |  |  | 
11 | C=C1CN2CCC[C@@]2(COc2nc(N3CCC[C@@](C)(O)C3)c3cc4c(c(F)c3n2)-c2cccc3ccc(F)c(c23)CCOCCN4C)C1 [Example 54, (R)-1-(3,15-difluoro-9-methyl-13-(((S)-2-methylenetetrahydro-1H-pyrazin-7a(5H)-yl)methoxy)-4,5,8,9-tetrahydro-7H-naphtho[1′,8′:7,8,9][1]oxa[4]azacycloundeca[5,6-g]quinazoline-11-yl)-3-methylpiperidin-3-ol] |  |  |  |  |  | 885 nM | 1260 nM | 892 nM | 659 nM
12 | C=C1CN2CCC[C@@]2(COc2nc(N3CCC[C@@](C)(O)C3)c3cc4c(c(F)c3n2)-c2cc(O)cc3ccc(F)c(c23)CCOCCN4)C1 (single isomer, unassigned) [Example 42D] |  | 5.9 nM | 39 nM | 12 nM | 2.2 nM |  |  |  | 
13 | C[C@@]1(O)CCCN(c2nc(OCC3(N4CCOCC4)CC3)nc3c(F)c4c(cc23)NCCCCCc2c(F)ccc3cc(O)cc-4c23)C1 (single isomer, unassigned) [Example 33B] |  | 3080 nM | 4670 nM | > 10000 nM | > 10000 nM |  |  |  | 
14 | C[C@@]1(O)CCCN(c2nc(OCC3(CN4CCOCC4)CC3)nc3c(F)c4c(cc23)NCCCCCc2c(F)ccc3cc(O)cc-4c23)C1 [Example 26] |  |  |  | 234 nM | 74 nM | 393 nM | 607 nM | 218 nM | 51 nM
15 | O=C1CCCCCc2c(F)ccc3cc(O)cc(c23)-c2c(cc3c(N4CC5CCC(C4)N5)nc(OC[C@@]45CCCN4C[C@H](F)C5)nc3c2F)N1 [Example 9, 12-((1R,5S)-3,8-diazabicyclo[3.2.1]octan-3-yl)-3,16-difluoro-14-(((2R,7aS)-2-fluorotetrahydro-1H-pyrazin-7a(5H)-yl)methoxy)-18-hydroxy-5,6,7,8-tetrahydro-4H-naphtho[1′,8′:4,5,6][1]azacyclododecino[2,3-g]quinazolin-9(10H)-one] |  |  | 613 nM | 118 nM | 18 nM | 51 nM |  |  | 
16 | C[C@@]1(O)CCCN(c2nc(OCC34CCCN3C[C@]3(C4)CC3(F)F)nc3c(F)c4c(cc23)NCCCCCc2c(F)ccc3cc(O)cc-4c23)C1 (single isomer, unassigned) [Example 24A] |  |  |  | 352 nM | 91 nM | 508 nM | 847 nM |  | 
17 | [2H]C([2H])([2H])N1CCOCCc2c(F)ccc3cc(O)cc(c23)-c2c1cc1c(N3CCC[C@@](C)(O)C3)nc(OC[C@@]34CCCN3C[C@H](F)C4)nc1c2F [Example 46, 3,15-difluoro-13-(((2R,7aS)-2-fluorotetrahydro-1H-pyrazin-7a(5H)-yl)methoxy)-11-((R)-3-hydroxy-3-methylpiperidin-1-yl)-9-(trideuteromethyl)-4,5,8,9-tetrahydro-7H-naphtho[1′,8′:7,8,9][1]oxa[4]azacycloundeca[5,6-g]quinazoline-17-ol] |  |  |  |  |  | 12 nM | 30 nM | 11 nM | 5.8 nM
18 | CN(C)CC1(COc2nc(N3CCC[C@@](C)(O)C3)c3cc4c(c(F)c3n2)-c2cc(O)cc3ccc(F)c(c23)CCCCCN4)CC1 [Example 27] |  |  |  |  |  | 314 nM | 1000 nM | 338 nM | 99 nM
19 | C[C@@]1(O)CCCN(c2nc(OC[C@@]34CCCN3C[C@H](F)C4)nc3c(F)c4c(cc23)NCCCCCc2c(F)ccc3cc(O)cc-4c23)C1 [Example 16, 3,15-difluoro-13-(((2R,7aS)-2-fluorotetrahydro-1H-pyrrolidin-7a(5H)-yl)methoxy)-11-((R)-3-hydroxy-3-methylpiperidin-1-yl)-4,5,6,7,8,9-hexahydronaphthol[1′,8′:4,5,6][1]azacycloundecane [2,3-g]quinazolin-17-ol] |  |  |  |  |  | 83 nM | 288 nM | 102 nM | 31 nM
20 | CN1CC(F)(F)C[C@H]1COc1nc(N2CCC[C@@](C)(O)C2)c2cc3c(c(F)c2n1)-c1cc(O)cc2ccc(F)c(c12)CCCCCN3 [Example 34, 13-(((S)-4,4-difluoro-1-methylpyrrolidin-2-yl)methoxy)-3,15-difluoro-11-((R)-3-hydroxy-3-methylpiperidin-1-yl)-4,5,6,7,8,9-hexahydro-naphtho[1′,8′:4,5,6][1]azacycloundecino[2,3-g]quinazoline-17-ol] |  |  |  |  |  | 3660 nM | 3350 nM | > 10000 nM | 8960 nM
21 | C=C1CN2CCCC2(COc2nc(N3CCC[C@@](C)(O)C3)c3cc4c(c(F)c3n2)-c2cc(O)cc3ccc(F)c(c23)CCOCCN4C)C1 (stereo partly shown) [Example 48] |  |  |  |  |  | 7.4 nM | 42 nM | 17 nM | 3.3 nM
22 | C[C@@]1(O)CCCN(c2nc(OCC34CCCN3CC(F)(F)C4)nc3c(F)c4c(cc23)NCCCCCc2c(F)ccc3cc(O)cc-4c23)C1 (stereo partly shown) [Example 36] |  |  |  |  |  | 1880 nM | 2480 nM | 3910 nM | 1390 nM
23 | C=C1CN2C[C@H](F)C[C@]2(COc2nc(N3CCC[C@@](C)(O)C3)c3cc4c(c(F)c3n2)-c2cc(O)cc3ccc(F)c(c23)CCOCCN4C)C1 [Example 49] |  |  |  |  |  | 83 nM | 112 nM | 17 nM | 20 nM
